30 compounds from US11104690B2, “Indazole derivatives useful as inhibitors of diacylglyceride O-acyltransferase 2” (Merck Sharp & Dohme Corp., priority 2016, dated 2021) can be followed below.

Sequence of Human DGAT2 (Q96PD7 whole entry): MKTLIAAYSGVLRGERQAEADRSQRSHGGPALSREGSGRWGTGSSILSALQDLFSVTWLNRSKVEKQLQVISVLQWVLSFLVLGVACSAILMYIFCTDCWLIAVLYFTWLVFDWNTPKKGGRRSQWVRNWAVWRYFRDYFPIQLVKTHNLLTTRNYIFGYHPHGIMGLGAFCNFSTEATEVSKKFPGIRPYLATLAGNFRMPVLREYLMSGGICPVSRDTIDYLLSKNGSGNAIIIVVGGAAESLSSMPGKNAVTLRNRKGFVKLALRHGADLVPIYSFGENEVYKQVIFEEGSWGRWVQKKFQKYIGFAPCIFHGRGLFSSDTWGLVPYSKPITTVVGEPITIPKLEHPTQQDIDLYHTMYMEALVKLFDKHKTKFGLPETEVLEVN

This assay addresses Human DGAT2 (Homo sapiens (Human), UniProt Q96PD7). The assay is described as follows: DGAT2 Enzymatic Activity Assay (triolein formation, LC/MS/MS). The following applies: hDGAT2 Sf-9 membrane prep; 25 μM diolein, 10 μM oleoyl-CoA; room temperature. It is filed as biochemical. The method in brief: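 Triolein product, measured by LC/MS/MS as a ratio to internal standard, gave % inhibition and 4-parameter IC50. Reaction: 25 μM diolein, 10 μM oleoyl-CoA, 10 ng/μL hDGAT2 Sf-9 membrane, 100 mM Tris.Cl pH 7.0, 20 mM MgCl2, 5% ethanol, room temperature.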
The term IC50 denotes the concentration that inhibits the measured activity by half. A high value points to weaker potency. Regarding `CC1(NC(=O)c2ccc3c(-c4cc(C(N)=O)ccc4Cl)nn(-c4ccc(F)cc4)c3c2)CCS(=O)(=O)C1` (single isomer, unassigned) [Example 121-B, 3-(5-carbamoyl-2-chlorophenyl)-1-(4-fluorophenyl)-N-(3-methyl-1,1-dioxidotetrahydrothiophen-3-yl)-1H-indazole-6-carboxamide], the IC50 is 61 nM.

`O=C(N[C@@H]1CCCC[C@H]1O)c1ccc2c(-c3ccccc3Cl)nn(-c3ccc(F)cc3)c2c1` (racemic) [Example 67] displayed an IC50 of 40 nM.

Consider `O=C(NCCn1cnnc1)c1ccc2c(-c3ccccc3Cl)nn(-c3ccc(F)cc3)c2c1` [Example 39, 3-(2-chlorophenyl)-1-(4-fluorophenyl)-N-[2-(4H-1,2,4-triazol-4-yl)ethyl]-1H-indazole-6-carboxamide], for which half-maximal inhibition (IC50) was put at 96 nM.

`CC1(NC(=O)c2ccc3c(-c4ccccc4Cl)nn(-c4ccccn4)c3c2)CCS(=O)(=O)C1` (single isomer, unassigned) [Example 174-B, 3-(2-chlorophenyl)-N-(3-methyl-1,1-dioxidotetrahydrothiophen-3-yl)-1-pyridin-2-yl-1H-indazole-6-carboxamide] gave an IC50 of 75 nM. The IC50 values of the last two compounds are within 1.5-fold of each other.

On to `O=C(c1ccc2c(-c3ccccc3Cl)nn(-c3ccc(F)cc3)c2c1)N1CC2CC1CS(=O)(=O)C2` (racemic) [Example 23, 3-(2-chlorophenyl)-6-[(3,3-dioxido-3-thia-6-azabicyclo[3.2.1]oct-6-yl)carbonyl]-1-(4-fluorophenyl)-1H-indazole], for which the IC50 turned out to be 403 nM.

Take `Cc1ncc([C@H](C)NC(=O)c2ccc3c(-c4ccccc4Cl)nn(-c4ccc(F)cc4)c3c2)cn1` [Example 34, 3-(2-chlorophenyl)-1-(4-fluorophenyl)-N-[(1S)-1-(2-methylpyrimidin-5-yl)ethyl]-1H-indazole-6-carboxamide]: the midpoint of inhibition, the IC50, lay at 75 nM. Compared with the last compound, the IC50 is about 5.4-fold lower.

Compound `O=C(NC1CCS(=O)(=O)C1)c1ccc2c(-c3cncnc3)nn(-c3ccc(F)cc3)c2c1` (single isomer, unassigned) [Example 133-A, N-(1,1-dioxidotetrahydrothiophen-3-yl)-1-(4-fluorophenyl)-3-pyrimidin-5-yl-1H-indazole-6-carboxamide] registered an IC50 of 846 nM.

Consider `COCCNC(=O)c1ccc2c(-c3ccccc3Cl)nn(-c3ccc(F)cc3)c2c1` [Example 45, 3-(2-chlorophenyl)-1-(4-fluorophenyl)-N-(2-methoxyethyl)-1H-indazole-6-carboxamide], for which half-maximal inhibition (IC50) was put at 424 nM. Against the preceding compound, the IC50 is about 2-fold lower.

For `CC1(NC(=O)c2ccc3c(-c4cccc(C(N)=O)c4)nn(-c4ccc(F)cc4)c3c2)CCS(=O)(=O)C1` (racemic) [Example 149, 3-(3-carbamoylphenyl)-1-(4-fluorophenyl)-N-(3-methyl-1,1-dioxidotetrahydrothiophen-3-yl)-1H-indazole-6-carboxamide], half-maximal inhibition (IC50) was put at 249 nM.

Compound `CC1(NC(=O)c2ccc3c(-c4cc(C(F)(F)F)ccc4Cl)nn(-c4ccc(F)cc4)c3c2)CCS(=O)(=O)C1` (single isomer, unassigned) [Example 160-A, 3-[2-chloro-5-(trifluoromethyl)phenyl]-1-(4-fluorophenyl)-N-(3-methyl-1,1-dioxidotetrahydrothiophen-3-yl)-1H-indazole-6-carboxamide] came in with an IC50 of 6.9 nM.

As to `O=C(N[C@H](CO)c1ccc(C(F)(F)F)nc1)c1ccc2c(-c3ccccc3Cl)nn(-c3ccc(F)cc3)c2c1` [Example 5, 3-(2-chlorophenyl)-1-(4-fluorophenyl)-N-{(1S)-2-hydroxy-1-[6-(trifluoromethyl)pyridin-3-yl]ethyl}-1H-indazole-6-carboxamide], the midpoint of inhibition, the IC50, lay at 45 nM. This IC50 lies about 6.5-fold higher than the previous one.

For `O=C(NC1CCS(=O)(=O)C1)c1ccc2c(-c3ccccc3Cl)nn(Cc3ccc(F)cc3)c2c1` (stereo not drawn) [Example 170, 3-(2-chlorophenyl)-N-(1,1-dioxidotetrahydrothiophen-3-yl)-1-(4-fluorobenzyl)-1H-indazole-6-carboxamide], half-maximal inhibition (IC50) required 179 nM.

`CCS(=O)(=O)CCNC(=O)c1ccc2c(-c3ccccc3Cl)nn(-c3ccc(F)cc3)c2c1` [Example 26, 3-(2-chlorophenyl)-N-[2-(ethylsulfonyl)ethyl]-1-(4-ftuorophenyl)-1H-indazole-6-carboxamide] yielded an IC50 of 446 nM. This IC50 lies about 2.5-fold higher than the previous one.

With `CC1(NC(=O)c2ccc3c(-c4cc(C#N)ccc4F)nn(-c4ccc(F)cc4)c3c2)CCS(=O)(=O)C1` (single isomer, unassigned) [Example 151-A, 3-(5-cyano-2-fluorophenyl)-1-(4-fluorophenyl)-N-(3-methyl-1,1-dioxidotetrahydrothiophen-3-yl)-1H-indazole-6-carboxamide], the IC50 was 4.5 nM.

The compound `O=C(N[C@@H](CO)c1ccc(C(F)(F)F)nc1)c1ccc2c(-c3ccccc3Cl)nn(-c3ccc(F)cc3)c2c1` [Example 30, 3-(2-chlorophenyl)-1-(4-fluorophenyl)-N-{(1R)-2-hydroxy-1-[6-(trifluoromethyl)pyridin-3-yl]ethyl}-1H-indazole-6-carboxamide] displayed an IC50 of 48 nM. This IC50 is about 11-fold higher than that of the compound before.

On to `O=C(NC(CCN1CCOCC1)c1ccccc1)c1ccc2c(-c3ccccc3Cl)nn(-c3ccc(F)cc3)c2c1` (racemic) [Example 109, 3-(2-chlorophenyl)-1-(4-fluorophenyl)-N-(3-morpholin-4-yl-1-phenylpropyl)-1H-indazole-6-carboxamide], for which the IC50 was found to be 532 nM.

`O=C(NC1CCC(F)(F)C1)c1ccc2c(-c3ccccc3Cl)nn(-c3ccc(F)cc3)c2c1` (racemic) [Example 64, 3-(2-chlorophenyl)-N-(3,3-difluorocyclopentyl)-1-(4-fluorophenyl)-1H-indazole-6-carboxamide] had an IC50 of 132 nM.

Turning to `N#CC1(NC(=O)c2ccc3c(-c4ccccc4Cl)nn(-c4ccc(F)cc4)c3c2)CC1` [Example 105, 3-(2-chlorophenyl)-N-(1-cyanocyclopropyl)-1-(4-fluorophenyl)-1H-indazole-6-carboxamide], half-maximal inhibition (IC50) was put at 139 nM.

Consider `CC(C)(CO)NC(=O)c1ccc2c(-c3ccccc3Cl)nn(-c3ccc(F)cc3)c2c1` [Example 42, 3-(2-chlorophenyl)-1-(4-fluorophenyl)-N-(2-hydroxy-1,1-dimethylethyl)-1H-indazole-6-carboxamide], for which the IC50 is 26 nM.

Compound `O=C(NC1CCCC1)c1ccc2c(-c3ccccc3Cl)nn(-c3ccc(F)cc3)c2c1` [Example 84, 3-(2-chlorophenyl)-N-cyclopentyl-1-(4-fluorophenyl)-1H-indazole-6-carboxamide] had an IC50 of 156 nM. Against the preceding compound, the IC50 is about 6-fold higher.

The compound `CC1(NC(=O)c2ccc3c(-c4cccc(Cl)c4)nn(-c4ccc(F)cc4)c3c2)CCS(=O)(=O)C1` (single isomer, unassigned) [Example 158-A, 3-(3-chlorophenyl)-1-(4-fluorophenyl)-N-(3-methyl-1,1-dioxidotetrahydrothiophen-3-yl)-1H-indazole-6-carboxamide] gave an IC50 of 31 nM. Against the preceding compound, the IC50 is about 5-fold lower.

In turn, `CCOC(=O)C1(NC(=O)c2ccc3c(-c4ccccc4Cl)nn(-c4ccc(F)cc4)c3c2)CC1` [Example 62, ethyl 1-({[3-(2-chlorophenyl)-1-(4-fluorophenyl)-1H-indazol-6-yl]carbonyl}amino)cyclopropane carboxylate] registered an IC50 of 580 nM.

For the compound `O=C(NCC1(O)CCCCC1)c1ccc2c(-c3ccccc3Cl)nn(-c3ccc(F)cc3)c2c1` [Example 44, 3-(2-chlorophenyl)-1-(4-fluorophenyl)-N-[(1-hydroxycyclohexyl)methyl]-1H-indazole-6-carboxamide], 176 nM corresponded to half-maximal inhibition (IC50).

The compound `O=C(NCCS(=O)(=O)NCc1ccccc1)c1ccc2c(-c3ccccc3Cl)nn(-c3ccc(F)cc3)c2c1` [Example 54, N-[2-(benzylsulfamoyl)ethyl]-3-(2-chlorophenyl)-1-(4-fluorophenyl)-1H-indazole-6-carboxamide] yielded an IC50 of 121 nM.

On to `CCCCC(NC(=O)c1ccc2c(-c3ccccc3Cl)nn(-c3ccc(F)cc3)c2c1)C(O)C(F)(F)F` (stereo not drawn) [Example 73, 3-(2-chlorophenyl)-1-(4-fluorophenyl)-N-[1-(2,2,2-trifluoro-1-hydroxyethyl)pentyl]-1H-indazole-6-carboxamide], for which the IC50 turned out to be 534 nM.

`C[C@H](CS(N)(=O)=O)NC(=O)c1ccc2c(-c3ccccc3Cl)nn(-c3ccc(F)cc3)c2c1` [Example 51, 3-(2-chlorophenyl)-1-(4-fluorophenyl)-N-[(1R)-1-methyl-2-sulfamoylethyl]-1H-indazole-6-carboxamide]: the IC50 was determined as 184 nM.

The compound `CC1(NC(=O)c2ccc3c(-c4ccccc4Cl)nn(-c4ncc(F)cn4)c3c2)CCS(=O)(=O)C1` (racemic) [Example 181, 3-(2-chlorophenyl)-1-(5-fluoropyrimidin-2-yl)-N-(3-methyl-1,1-dioxidotetradioxidotetradioxido-tetradioxidotetra-hydrothiophen-3-yl)-1H-indazole-6-carboxamide] came in with an IC50 of 391 nM.

As to `CCC(CO)NC(=O)c1ccc2c(-c3ccccc3Cl)nn(-c3ccc(F)cc3)c2c1` (racemic) [Example 65, 3-(2-chlorophenyl)-1-(4-fluorophenyl)-N-[1-(hydroxyinethyl)propyl]-1H-indazole-6-carboxamide], half-maximal inhibition (IC50) required 170 nM.

Compound `CC1(NC(=O)c2ccc3c(-c4ccccc4Cl)nn(-c4ccc(F)cc4)c3c2)CCS(=O)(=O)C1` (single isomer, unassigned) [Example 1-B, 3-(2-chlorophenyl)-1-(4-fluorophenyl)-N-(3-methyl-1,1-dioxidotetrahydrothiophen-3-yl)-1H-indazole-6-carboxamide] had an IC50 of 8.3 nM.

`Cc1noc([C@H](NC(=O)c2ccc3c(-c4ccccc4Cl)nn(-c4ccc(F)cc4)c3c2)[C@H](C)O)n1` (stereo in doubt) [Example 48, 3-(2-chlorophenyl)-1-(4-fluorophenyl)-N-[(1R,2S)-2-hydroxy-1-(3-methyl-1,2,4-oxadiazol-5-yl)propyl]-1H-indazole-6-carboxamide] had an IC50 of 96 nM.
